From patent publication US11702427B2 (priority 2018, dated 2023) come the findings set out here.

Molecules are shown by their SMILES.

The test system of one assay is HBsAg. The assay is described as follows: HBsAg assay: inhibition of HBsAg in HepG2.2.15 cells (CLIA immunoassay of supernatant). It is filed as cell-based, hepatitis B virus (HBV). Conditions: Hepatitis B virus, HepG2.2.15, 144 h, read-out: sAg EC50, HepG2.2.15 cells; supernatant collected at day 6 after exposure; HBsAg chemiluminescence immunoassay. The procedure, abridged:
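HepG2.2.15 cells (30,000/well) exposed to serially diluted compound (0.5% DMSO) for 2–3 days, then re-dosed in fresh medium for 3–4 more days. On day 6, supernatant HBsAg quantified by chemiluminescence immunoassay; EC50 from dose-response curves. Viability measured separately by CellTiter-Glo.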
By EC50 is commonly meant the concentration at which the effect is half-maximal. For the compound `COCCCOc1cc2c(cc1OC)-c1nc(Cl)c(C(=O)O)c(Cl)c1C(C(C)C)C2` (stereo not shown) [Example 21, 2,4-Dichloro-5-isopropyl-9-methoxy-8-(3-methoxypropoxy)-5,6-dihydrobenzo[h]quinoline-3-carboxylic acid], the EC50 came out at 150 nM. Take `COCCCOc1cc2c(cc1OC)-c1[nH]c(=O)c(C(=O)O)c(OCCO)c1C(C(C)C)C2` (stereo not shown) [Example 90, 4-(2-Hydroxyethoxy)-5-isopropyl-9-methoxy-8-(3-methoxypropoxy)-2-oxo-1,2,5,6-tetrahydrobenzo[h]quinoline-3-carboxylicacid]: the EC50 worked out at 11000 nM.

For `COCCCOc1cc2c(cc1Cl)-c1[nH]c(=O)c(C(=O)O)cc1[C@H](C(C)C)CO2` [Example 69, (S)-10-Chloro-5-isopropyl-9-(3-methoxypropoxy)-2-oxo-1,2,5,6-tetrahydrobenzo[2,3]oxepino[4,5-b]pyridine-3-carboxylicacid], the EC50 is 200 nM.

As for `COCCCOc1cc2c(nc1OC)-c1[nH]c(=O)c(C(N)=O)cc1C(C(C)(C)C)C2` (stereo not shown) [Example 62, 5-(tert-Butyl)-9-methoxy-8-(3-methoxypropoxy)-2-oxo-1,2,5,6-tetrahydro-1,10-phenanthroline-3-carboxamide], the EC50 was determined as 25 nM. For `COCCCOc1cc2c(nc1OC)-c1[nH]c(=O)c(C(=O)NO)cc1C(C(C)(C)C)C2` (stereo not shown) [Example 67, 5-(tert-Butyl)-N-hydroxy-9-methoxy-8-(3-methoxypropoxy)-2-oxo-1,2,5,6-tetrahydro-1,10-phenanthroline-3-carboxamide], the EC50 amounted to 5 nM. `COCCCOc1cc2c(cc1OC)-c1[nH]c(=O)c(C(=O)O)c(F)c1C(C(C)C)C2` (stereo not shown) [Example 17, 4-Fluoro-5-isopropyl-9-methoxy-8-(3-methoxypropoxy)-2-oxo-1,2,5,6-tetrahydrobenzo[h]quinoline-3-carboxylic acid]: the EC50 was found to be 640 nM.

Regarding `COCCCOc1cc2c(cc1CCOC)-c1[nH]c(=O)c(C(=O)O)c(O)c1[C@H](C(C)C)CO2` [Example 72, (S)-4-Hydroxy-5-isopropyl-10-(2-methoxyethyl)-9-(3-methoxypropoxy)-2-oxo-1,2,5,6-tetrahydrobenzo[2,3]oxepino[4,5-b]pyridine-3-carboxylic acid], the EC50 was determined as 600 nM. Consider `COCCCOc1cc2c(nc1OC)-c1[nH]c(=O)c(C(=O)O)c(OC)c1C(C(C)(C)C)C2` (stereo not shown) [Example 92, 5-(tert-Butyl)-4,9-dimethoxy-8-(3-methoxypropoxy)-2-oxo-1,2,5,6-tetrahydro-1,10-phenanthroline-3-carboxylic acid], for which the EC50 is 640 nM.

For `COCCCOc1cc2c(nc1C1CCOCC1)-c1[nH]c(=O)c(C(=O)O)c(O)c1C(C(C)C)CO2` (stereo not shown) [Example 79, 8-Hydroxy-7-isopropyl-3-(3-methoxypropoxy)-10-oxo-2-(tetrahydro-2H-pyran-4-yl)-6,7,10,11-tetrahydrooxepino[3,2-b:4,5-b′]dipyridine-9-carboxylic acid], the 50% effective concentration (EC50) turned out to be 5000 nM.

As for `COCCCOc1cc2c(nc1Cl)-c1[nH]c(=O)c(C(=O)O)c(O)c1C(C(C)(C)C)C2` (stereo not shown) [Example 29, 5-(tert-Butyl)-9-chloro-4-hydroxy-8-(3-methoxypropoxy)-2-oxo-1,2,5,6-tetrahydro-1,10-phenanthroline-3-carboxylicacid], the EC50 amounted to 1 nM. Same read-out and setting: then `COCCCOc1cc2c(nc1C1CC1)-c1[nH]c(=O)c(C(=O)O)cc1C(C(C)C)C2` (stereo not shown) [Example 56, 9-Cyclopropyl-5-isopropyl-8-(3-methoxypropoxy)-2-oxo-1,2,5,6-tetrahydro-1,10-phenanthroline-3-carboxylicacid], with 1 nM; and `COCCCOc1cc2c(nc1C1CC1)-c1[nH]c(=O)c(C(=O)O)c(O)c1C(C(C)C)C2` (stereo not shown) [Example 49, 9-Cyclopropyl-4-hydroxy-5-isopropyl-8-(3-methoxypropoxy)-2-oxo-1,2,5,6-tetrahydro-1,10-phenanthroline-3-carboxylicacid], with 1 nM.

Staying with this assay, now noted: read-out: sAg EC50; HepG2.2.15 cells; supernatant collected at day 6 after exposure; HBsAg chemiluminescence immunoassay.
For the compound `COCCCOc1cc2c(nc1OC)-c1[nH]c(=O)c(C(=O)O)c(O)c1C(C(C)(C)C)C2` (single isomer, unassigned) [Example 37, 5-(tert-Butyl)-4-hydroxy-9-methoxy-8-(3-methoxypropoxy)-2-oxo-1,2,5,6-tetrahydro-1,10-phenanthroline-3-carboxylic acid], the EC50 turned out to be 1 nM. As to `COCCCOc1cc2c(cc1OC)-c1[nH]c(=O)c(C(=O)O)cc1C(C)(C(C)C)C2` (single isomer, unassigned) [Example 8, 5-Isopropyl-9-methoxy-8-(3-methoxypropoxy)-5-methyl-2-oxo-1,6-dihydrobenzo[h]quinoline-3-carboxylic acid], the EC50 amounted to 2500 nM.

`COCCCOc1cc2c(nc1OC)-c1[nH]c(=O)c(C(=O)O)c(O)c1C(C(C)C)C2` (single isomer, unassigned) [Example 34, 4-Hydroxy-5-isopropyl-9-methoxy-8-(3-methoxypropoxy)-2-oxo-1,2,5,6-tetrahydro-1,10-phenanthroline-3-carboxylic acid]: the EC50 stood at 3 nM.

`CCOc1nc2c(cc1OCCCOC)CC(C(C)C)c1c-2[nH]c(=O)c(C(=O)O)c1O` (single isomer, unassigned) [Example 41, 9-Ethoxy-4-hydroxy-5-isopropyl-8-(3-methoxypropoxy)-2-oxo-1,2,5,6-tetrahydro-1,10-phenanthroline-3-carboxylic acid]: the EC50 stood at 1 nM. With `COCCCOc1cc2c(nc1C1CC1)-c1[nH]c(=O)c(C(=O)O)c(O)c1C(C(C)(C)C)CO2` (single isomer, unassigned) [Example 83, 7-(tert-Butyl)-2-cyclopropyl-8-hydroxy-3-(3-methoxypropoxy)-10-oxo-6,7,10,11-tetrahydrooxepino[3,2-b:4,5-b′]dipyridine-9-carboxylic acid], the EC50 turned out to be 15 nM. For `COCCCOc1cc2c(nc1OC)-c1[nH]c(=O)c(C(=O)O)cc1C(C(C)C)C2` (single isomer, unassigned) [Example 44, 5-Isopropyl-9-methoxy-8-(3-methoxypropoxy)-2-oxo-1,2,5,6-tetrahydro-1,10-phenanthroline-3-carboxylic acid], the EC50 came to 2 nM. Turning to `COCCCOc1cc2c(nc1OC)-c1[nH]c(=O)c(C(=O)O)c(O)c1C(C(C)(C)C)CO2` (single isomer, unassigned) [Example 85, 7-(tert-Butyl)-8-hydroxy-2-methoxy-3-(3-methoxypropoxy)-10-oxo-6,7,10,11-tetrahydrooxepino[3,2-b:4,5-b′]dipyridine-9-carboxylic acid], the EC50 came to 66 nM.
